# In patent publication US20140234365A1, “2-HYDROXYHIPPURIC ACID ANALOGS, AND METHODS FOR THEIR SYNTHESIS AND USE” (ALERE SAN DIEGO, INC., priority 2011, published 2014):
# System: anti-2-Hydroxyhippuric acid antibody
# Assay: Competitive immunoassay for detecting 2-hydroxyhippuric acid (microfluidic device, fluorescent latex particle conjugate)
# Type: binding
# Details: analyte diluted into pools of human plasma, fluorescence read in TRIAGE meter after >15 minutes
# Description: A competitive assay for detecting 2-hydroxyhippuric acid in […] was developed using microfluidic devices manufactured at Alere San Diego, Inc. essentially as described in WO98/43739, WO98/08606, WO98/21563, and WO93/24231. An anti-2-Hydroxyhippuric acid antibody was developed by phage display using a hapten-KLH conjugate as immunogen. This antibody was conjugated to a 0.13 μm maleimide-functionalized latex particle via a free cysteine residue on the antibody. The detection reagent consisted of a 0.50 μm fluorescence energy transfer latex particle (essentially as described in U.S. Pat. Nos. 5,763,189, 6,238,931, and 6,251,687; and International Publication WO95/08772) made according to Example 6. […] (comprising 0.22% solids) of the antibody-particle conjugate was spotted onto the diagnostic lane of the microfluidic device, and 170 nL (comprising 0.4% solids) of the 2-Hydroxyhippuric acid-particle conjugate was applied to the device reaction chamber. Analytes were dissolved in deionized water, then diluted into pools of human plasma to achieve the desired final concentration. 210 μL of sample was applied to the device sample addition zone and allowed to run >15 minutes prior to reading the fluorescence in the TRIAGE (Biosite Incorporated) meter. A fluorescent signal was obtained by integrating the fluorescence as a function of distance from the device origin.
structure (smiles),measurement,value
"O=C(O)CNC(=O)c1ccccc1O [2-Hydroxyhippuric acid, 2-hydroxyhippuric acid]",concentration at which the assay detected the analyte,10 µg/mL
